Measurements from article PMC6364417, “Kinase inhibitor library screening identifies synergistic drug combinations effective in sensitive and resistant melanoma cells” (Journal of Experimental & Clinical Cancer Research : CR, 2019).

Experiments:
Experiment in all cases: Kinase inhibitor library screening, PrestoBlue cell viability, 1 or 10 μM, 72 h
[1] = system: 501Mel-GP cells (Dabrafenib-resistant); settings: 501Mel GP
[2] = system: A375-GP cells (Dabrafenib-resistant); settings: A375 GP
501Mel cells (parental) = settings: 501Mel Parental
Procedure, shortened: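 Normalised to untreated controls, viability percentages came from PrestoBlue measured on a microplate reader following 72 h incubation with drug. Each line was assayed at least twice.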

[3] = system: IGR37-GP cells (Dabrafenib-resistant); settings: IGR37 GP
[4] = system: A375-XP cells (Vemurafenib-resistant); settings: A375 XP
IGR37 cells (parental) = settings: IGR37 Parental
[5] = system: 501Mel-XP cells (Vemurafenib-resistant); settings: 501Mel XP
A375 cells (parental) = settings: A375 Parental
[6] = system: IGR37-XP cells (Vemurafenib-resistant); settings: IGR37 XP

O=C(O)[C@]1(Cc2cccc(Nc3nccs3)n2)CC[C@@H](Oc2cccc(Cl)c2F)CC1 [MK-5108 (VX-689)]
cell viability (kinase inhibitor library screening) ([1]; 1μΜ, 72 h): 83.4%
cell viability (kinase inhibitor library screening) ([1]; 10μΜ, 72 h): 63.6%
cell viability (kinase inhibitor library screening) ([2]; 1μΜ, 72 h): 92.6%
cell viability (kinase inhibitor library screening) ([2]; 10μΜ, 72 h): 63.9%
cell viability (kinase inhibitor library screening) (501Mel cells (parental); 1μΜ, 72 h): 94.9%
cell viability (kinase inhibitor library screening) (501Mel cells (parental); 10μΜ, 72 h): 74.6%
cell viability (kinase inhibitor library screening) ([3]; 10μΜ, 72 h): 93.5%
cell viability (kinase inhibitor library screening) ([4]; 1μΜ, 72 h): 99.5%
cell viability (kinase inhibitor library screening) ([4]; 10μΜ, 72 h): 68.2%
cell viability (kinase inhibitor library screening) (IGR37 cells (parental); 1μΜ, 72 h): 98.6%
cell viability (kinase inhibitor library screening) (IGR37 cells (parental); 10μΜ, 72 h): 94.9%
cell viability (kinase inhibitor library screening) ([5]; 1μΜ, 72 h): 72.1%
cell viability (kinase inhibitor library screening) ([5]; 10μΜ, 72 h): 52.0%
cell viability (kinase inhibitor library screening) (A375 cells (parental); 10μΜ, 72 h): 56.1%
cell viability (kinase inhibitor library screening) (A375 cells (parental); 1μΜ, 72 h): 91.4%
cell viability (kinase inhibitor library screening) ([6]; 1μΜ, 72 h): 100.4%
cell viability (kinase inhibitor library screening) ([6]; 10μΜ, 72 h): 80.0%

N#C/C(=C\c1ccc(O)c(O)c1)C(=O)NCc1ccccc1 [AG-490]
cell viability, 501Mel GP, 1μΜ ([1]; 1μΜ, 72 h, in %): 105.8
cell viability, 501Mel GP, 10μΜ ([1]; 10μΜ, 72 h, in %): 86.5
cell viability, A375 GP, 10μΜ ([2]; 10μΜ, 72 h, in %): 88.5
cell viability, 501Mel Parental, 1μΜ (501Mel cells (parental); 1μΜ, 72 h, in %): 99.1
cell viability, 501Mel Parental, 10μΜ (501Mel cells (parental); 10μΜ, 72 h, in %): 92.7
cell viability, IGR37 GP, 10μΜ ([3]; 10μΜ, 72 h): 88.3%
cell viability, A375 XP, 1μΜ ([4]; 1μΜ, 72 h, in %): 99.9
cell viability, A375 XP, 10μΜ ([4]; 10μΜ, 72 h, in %): 91.1
cell viability, IGR37 Parental, 1μΜ (IGR37 cells (parental); 1μΜ, 72 h, in %): 105.9
cell viability, 501Mel XP, 1μΜ ([5]; 1μΜ, 72 h, in %): 93.1
cell viability, 501Mel XP, 10μΜ ([5]; 10μΜ, 72 h, in %): 79.3
cell viability, A375 Parental, 10μΜ (A375 cells (parental); 10μΜ, 72 h, in %): 88.6
cell viability, IGR37 XP, 10μΜ ([6]; 10μΜ, 72 h): 70.7%
cell viability, IGR37 XP, 1μΜ ([6]; 1μΜ, 72 h, in %): 104.5

COc1cc(Nc2ncc(F)c(Nc3ccc4c(n3)N(COP(=O)(O)O)C(=O)C(C)(C)O4)n2)cc(OC)c1OC [R788 (Fostamatinib)]
cell viability (kinase inhibitor library screening) ([1]; 1μΜ, in %): 90.2
cell viability (kinase inhibitor library screening) ([1]; 10μΜ, in %): 61.2
cell viability (kinase inhibitor library screening) ([2]; 1μΜ, in %): 89.5
cell viability (kinase inhibitor library screening) ([2]; 10μΜ, in %): 49.0
cell viability (kinase inhibitor library screening) (501Mel cells (parental); 1μΜ, in %): 98.5
cell viability (kinase inhibitor library screening) (501Mel cells (parental); 10μΜ, in %): 76.6
cell viability (kinase inhibitor library screening) ([3]; 1μΜ, in %): 87.5
cell viability (kinase inhibitor library screening) ([3]; 10μΜ, in %): 21.3
cell viability (kinase inhibitor library screening) ([4]; 1μΜ, in %): 93.7
cell viability (kinase inhibitor library screening) ([4]; 10μΜ, in %): 63.9
cell viability (kinase inhibitor library screening) (IGR37 cells (parental); 1μΜ, in %): 99.8
cell viability (kinase inhibitor library screening) (IGR37 cells (parental); 10μΜ, in %): 77.8
cell viability (kinase inhibitor library screening) ([5]; 1μΜ, in %): 82.4
cell viability (kinase inhibitor library screening) ([5]; 10μΜ, in %): 25.1
cell viability (kinase inhibitor library screening) (A375 cells (parental); 1μΜ, in %): 95.5
cell viability (kinase inhibitor library screening) (A375 cells (parental); 10μΜ, in %): 47.5
cell viability (kinase inhibitor library screening) ([6]; 1μΜ, in %): 89.9
cell viability (kinase inhibitor library screening) ([6]; 10μΜ, in %): 12.1

CC1(COc2ccc3c(c2)ncn3-c2ccc3cccc(N4CCC(N)CC4)c3n2)COC1 [Crenolanib (CP-868596)]
Cell viability in kinase inhibitor library screening, 501Mel GP, 1μΜ ([1]; 1μΜ, 72 h, in %): 108.6
Cell viability in kinase inhibitor library screening, 501Mel GP, 10μΜ ([1]; 10μΜ, 72 h, in %): 51.0
Cell viability in kinase inhibitor library screening, A375 GP, 10μΜ ([2]; 10μΜ, 72 h): 66.5
Cell viability in kinase inhibitor library screening, 501Mel Parental, 1μΜ (501Mel cells (parental); 1μΜ, 72 h, in %): 112.4
Cell viability in kinase inhibitor library screening, 501Mel Parental, 10μΜ (501Mel cells (parental); 10μΜ, 72 h, in %): 12.0
Cell viability in kinase inhibitor library screening, IGR37 GP, 10μΜ ([3]; 10μΜ, 72 h): 84.5%
Cell viability in kinase inhibitor library screening, IGR37 GP, 1μΜ ([3]; 1μΜ, 72 h, in %): 104.5
Cell viability in kinase inhibitor library screening, A375 XP, 1μΜ ([4]; 1μΜ, 72 h): 108.4
Cell viability in kinase inhibitor library screening, A375 XP, 10μΜ ([4]; 10μΜ, 72 h): 78.4
Cell viability in kinase inhibitor library screening, IGR37 Parental, 1μΜ (IGR37 cells (parental); 1μΜ, 72 h, in %): 103.4
Cell viability in kinase inhibitor library screening, IGR37 Parental, 10μΜ (IGR37 cells (parental); 10μΜ, 72 h, in %): 89.7
Cell viability in kinase inhibitor library screening, 501Mel XP, 10μΜ ([5]; 10μΜ, 72 h, in %): 0.1
Cell viability in kinase inhibitor library screening, A375 Parental, 10μΜ (A375 cells (parental); 10μΜ, 72 h): 69.9
Cell viability in kinase inhibitor library screening, A375 Parental, 1μΜ (A375 cells (parental); 1μΜ, 72 h): 109.2
Cell viability in kinase inhibitor library screening, IGR37 XP, 10μΜ ([6]; 10μΜ, 72 h): 30.9%

C=CC(=O)Nc1cc2c(Nc3ccc(F)c(Cl)c3)ncnc2cc1OCCCN1CCOCC1 [CI-1033 (Canertinib)]
cell viability, 501Mel GP, 1μΜ ([1]; 1μΜ, 72 h, in %): 102.8
cell viability, 501Mel GP, 10μΜ ([1]; 10μΜ, 72 h, in %): 1.4
cell viability, A375 GP, 1μΜ ([2]; 1μΜ, 72 h, in %): 99.4
cell viability, A375 GP, 10μΜ ([2]; 10μΜ, 72 h, in %): 23.3
cell viability, 501Mel Parental, 1μΜ (501Mel cells (parental); 1μΜ, 72 h, in %): 103.3
cell viability, 501Mel Parental, 10μΜ (501Mel cells (parental); 10μΜ, 72 h, in %): 35.1
cell viability, IGR37 GP, 10μΜ ([3]; 10μΜ, 72 h): 30.7%
cell viability, IGR37 GP, 1μΜ ([3]; 1μΜ, 72 h, in %): 92.4
cell viability, A375 XP, 10μΜ ([4]; 10μΜ, 72 h, in %): 15.2
cell viability, IGR37 Parental, 1μΜ (IGR37 cells (parental); 1μΜ, 72 h, in %): 98.8
cell viability, IGR37 Parental, 10μΜ (IGR37 cells (parental); 10μΜ, 72 h, in %): 53.7
cell viability, 501Mel XP, 1μΜ ([5]; 1μΜ, 72 h, in %): 93.9
cell viability, 501Mel XP, 10μΜ ([5]; 10μΜ, 72 h, in %): 0.248
cell viability, A375 Parental, 1μΜ (A375 cells (parental); 1μΜ, 72 h, in %): 105.5
cell viability, A375 Parental, 10μΜ (A375 cells (parental); 10μΜ, 72 h, in %): 24.5
cell viability, IGR37 XP, 10μΜ ([6]; 10μΜ, 72 h): 23.7%
cell viability, IGR37 XP, 1μΜ ([6]; 1μΜ, 72 h, in %): 99.0

Nc1nc(N)c2nc(-c3cccc(O)c3)cnc2n1 [TG 100713]
Cell viability in kinase inhibitor library screening, 501Mel GP, 1μΜ ([1]; 1μΜ, 72 h, in %): 98.4
Cell viability in kinase inhibitor library screening, 501Mel GP, 10μΜ ([1]; 10μΜ, 72 h, in %): 36.6
Cell viability in kinase inhibitor library screening, A375 GP, 1μΜ ([2]; 1μΜ, 72 h): 94.1
Cell viability in kinase inhibitor library screening, A375 GP, 10μΜ ([2]; 10μΜ, 72 h): 37.7
Cell viability in kinase inhibitor library screening, 501Mel Parental, 1μΜ (501Mel cells (parental); 1μΜ, 72 h, in %): 94.5
Cell viability in kinase inhibitor library screening, 501Mel Parental, 10μΜ (501Mel cells (parental); 10μΜ, 72 h, in %): 56.1
Cell viability in kinase inhibitor library screening, IGR37 GP, 10μΜ ([3]; 10μΜ, 72 h): 58.8%
Cell viability in kinase inhibitor library screening, IGR37 GP, 1μΜ ([3]; 1μΜ, 72 h, in %): 93.1
Cell viability in kinase inhibitor library screening, A375 XP, 1μΜ ([4]; 1μΜ, 72 h): 93.7
Cell viability in kinase inhibitor library screening, A375 XP, 10μΜ ([4]; 10μΜ, 72 h): 40.5
Cell viability in kinase inhibitor library screening, IGR37 Parental, 10μΜ (IGR37 cells (parental); 10μΜ, 72 h, in %): 49.5
Cell viability in kinase inhibitor library screening, 501Mel XP, 1μΜ ([5]; 1μΜ, 72 h, in %): 90.7
Cell viability in kinase inhibitor library screening, 501Mel XP, 10μΜ ([5]; 10μΜ, 72 h, in %): 26.9
Cell viability in kinase inhibitor library screening, A375 Parental, 10μΜ (A375 cells (parental); 10μΜ, 72 h): 43.8
Cell viability in kinase inhibitor library screening, A375 Parental, 1μΜ (A375 cells (parental); 1μΜ, 72 h): 94.5
Cell viability in kinase inhibitor library screening, IGR37 XP, 10μΜ ([6]; 10μΜ, 72 h): 21.2%
Cell viability in kinase inhibitor library screening, IGR37 XP, 1μΜ ([6]; 1μΜ, 72 h, in %): 97.8

Cc1ccc(NC(=O)c2cccc(C(C)(C)C#N)c2)cc1Nc1ccc2ncn(C)c(=O)c2c1 [AZ628]
Cell viability in kinase inhibitor library screening, 501Mel GP, 10μΜ ([1]; 10μΜ, 72 h, in %): 83.3
Cell viability in kinase inhibitor library screening, A375 GP, 1μΜ ([2]; 1μΜ, 72 h): 19.6
Cell viability in kinase inhibitor library screening, A375 GP, 10μΜ ([2]; 10μΜ, 72 h): 21.0
Cell viability in kinase inhibitor library screening, 501Mel Parental, 1μΜ (501Mel cells (parental); 1μΜ, 72 h, in %): 59.7
Cell viability in kinase inhibitor library screening, 501Mel Parental, 10μΜ (501Mel cells (parental); 10μΜ, 72 h, in %): 64.1
Cell viability in kinase inhibitor library screening, IGR37 GP, 10μΜ ([3]; 10μΜ, 72 h): 55.7%
Cell viability in kinase inhibitor library screening, IGR37 GP, 1μΜ ([3]; 1μΜ, 72 h, in %): 78.8
Cell viability in kinase inhibitor library screening, A375 XP, 1μΜ ([4]; 1μΜ, 72 h): 20.4
Cell viability in kinase inhibitor library screening, A375 XP, 10μΜ ([4]; 10μΜ, 72 h): 13.2
Cell viability in kinase inhibitor library screening, IGR37 Parental, 1μΜ (IGR37 cells (parental); 1μΜ, 72 h, in %): 45.5
Cell viability in kinase inhibitor library screening, IGR37 Parental, 10μΜ (IGR37 cells (parental); 10μΜ, 72 h, in %): 41.8
Cell viability in kinase inhibitor library screening, 501Mel XP, 1μΜ ([5]; 1μΜ, 72 h, in %): 116.3
Cell viability in kinase inhibitor library screening, 501Mel XP, 10μΜ ([5]; 10μΜ, 72 h, in %): 79.0
Cell viability in kinase inhibitor library screening, A375 Parental, 10μΜ (A375 cells (parental); 10μΜ, 72 h): 23.0
Cell viability in kinase inhibitor library screening, A375 Parental, 1μΜ (A375 cells (parental); 1μΜ, 72 h): 26.2
Cell viability in kinase inhibitor library screening, IGR37 XP, 10μΜ ([6]; 10μΜ, 72 h): 15.2%
Cell viability in kinase inhibitor library screening, IGR37 XP, 1μΜ ([6]; 1μΜ, 72 h, in %): 60.5
